pIC50: −log10 of the molar value.
Biological target: T1, Nav 1.7 (Homo sapiens, UniProt Q15858)
T1 construct: expressed in transfected cells
Test: Whole-cell voltage clamp electrophysiology, manual patch clamp (marker b in Table of Examples)
Format: cell-based
Conditions: marker b = Manual patch clamp data; read-out: Nav 1.7 activity
From the text: a.IonWork Quattro data, b=Manual patch clamp data, c=Automated patch clamp data M=Method
Whole-Cell Voltage Clamp Electrophysiology Assay
Patch-clamp electrophysiology is considered the gold standard technique for investigation of ion channel function and pharmacology. Using this method, sodium channel currents can be measured in cells, which stably (or transiently) express the sodium channel subtype of interest. Application of compounds during such experiments provides a functional measure of the activity and potency of compounds affecting the ion channel of interest.
Electrophysiological studies can also be performed using the whole cell configuration of the standard manual patch clamp technique as described in the literature (e.g. Pflugers Arch., 1981, 391(2), 85-100). In this assay, cells that express the voltage-gated sodium channel protein of interest are exposed to the drugs by conventional microperfusion systems, or by a home-built perfusion system. A suitable voltage stimulus protocol is used to activate the voltage-gated sodium channels.
A suitable voltage stimulus protocol is used to activate voltage-gated sodium channel proteins of interest. A typical stimulus protocol may consist of sweeps of sequential voltage pulses starting from a holding potential (i.e. −65 mV), to a more positive and depolarising test pulse potential (i.e. −10 mV) and finally to a more negative and hyperpolarising potential (i.e. −100 mV). According to the biophysics of the voltage-gated ion channel of interest and interest in channel configuration the voltages and durations of the pulses as well as the overall frequency of sweeps applied might vary. Accordingly, a stimulus protocol was designed to assess compounds due to their potential to block NaV1.7 channels primarily in inactivated state. Selectivity over other voltage-gated sodium channel members was assessed by protocols that reflect the native function of the channels (i.e. heart rate or firing of neurons).
Electrophysiological studies can also be performed using the whole cell configuration of the standard manual patch clamp technique as described in the literature (e.g. Pflugers Arch., 1981, 391(2), 85-100). In this assay, cells that express the human voltage-gated sodium channel protein of interest are exposed to the drugs by conventional microperfusion systems, or by a home-built perfusion system. A suitable voltage stimulus protocol is used to activate the voltage-gated sodium channels. A suitable voltage stimulus protocol may consist of sequential voltage pulses from a holding potential, each first hyperpolarizing the cell, then depolarizing the channels for a brief period. A particularly suitable holding potential may be a voltage allowing a fraction of channels to remain in an inactivated state, like −60 mV. A suitable hyperpolarizing voltage and duration may be −120 mV for 100 ms, and depolarization voltage and duration may be −20 mV for 25 ms, and a suitable frequency of pulses may be 0.1 Hz, but may also have other parameters. Accordingly, a stimulus protocol was designed to assess compounds due to their potential to block NaV1.7 channels primarily in inactivated state. Selectivity over other voltage-gated sodium channel members was assessed by protocols that reflect the native function of the channels (i.e. heart rate or firing of neurons).

T1 sequence (Q15858 whole entry): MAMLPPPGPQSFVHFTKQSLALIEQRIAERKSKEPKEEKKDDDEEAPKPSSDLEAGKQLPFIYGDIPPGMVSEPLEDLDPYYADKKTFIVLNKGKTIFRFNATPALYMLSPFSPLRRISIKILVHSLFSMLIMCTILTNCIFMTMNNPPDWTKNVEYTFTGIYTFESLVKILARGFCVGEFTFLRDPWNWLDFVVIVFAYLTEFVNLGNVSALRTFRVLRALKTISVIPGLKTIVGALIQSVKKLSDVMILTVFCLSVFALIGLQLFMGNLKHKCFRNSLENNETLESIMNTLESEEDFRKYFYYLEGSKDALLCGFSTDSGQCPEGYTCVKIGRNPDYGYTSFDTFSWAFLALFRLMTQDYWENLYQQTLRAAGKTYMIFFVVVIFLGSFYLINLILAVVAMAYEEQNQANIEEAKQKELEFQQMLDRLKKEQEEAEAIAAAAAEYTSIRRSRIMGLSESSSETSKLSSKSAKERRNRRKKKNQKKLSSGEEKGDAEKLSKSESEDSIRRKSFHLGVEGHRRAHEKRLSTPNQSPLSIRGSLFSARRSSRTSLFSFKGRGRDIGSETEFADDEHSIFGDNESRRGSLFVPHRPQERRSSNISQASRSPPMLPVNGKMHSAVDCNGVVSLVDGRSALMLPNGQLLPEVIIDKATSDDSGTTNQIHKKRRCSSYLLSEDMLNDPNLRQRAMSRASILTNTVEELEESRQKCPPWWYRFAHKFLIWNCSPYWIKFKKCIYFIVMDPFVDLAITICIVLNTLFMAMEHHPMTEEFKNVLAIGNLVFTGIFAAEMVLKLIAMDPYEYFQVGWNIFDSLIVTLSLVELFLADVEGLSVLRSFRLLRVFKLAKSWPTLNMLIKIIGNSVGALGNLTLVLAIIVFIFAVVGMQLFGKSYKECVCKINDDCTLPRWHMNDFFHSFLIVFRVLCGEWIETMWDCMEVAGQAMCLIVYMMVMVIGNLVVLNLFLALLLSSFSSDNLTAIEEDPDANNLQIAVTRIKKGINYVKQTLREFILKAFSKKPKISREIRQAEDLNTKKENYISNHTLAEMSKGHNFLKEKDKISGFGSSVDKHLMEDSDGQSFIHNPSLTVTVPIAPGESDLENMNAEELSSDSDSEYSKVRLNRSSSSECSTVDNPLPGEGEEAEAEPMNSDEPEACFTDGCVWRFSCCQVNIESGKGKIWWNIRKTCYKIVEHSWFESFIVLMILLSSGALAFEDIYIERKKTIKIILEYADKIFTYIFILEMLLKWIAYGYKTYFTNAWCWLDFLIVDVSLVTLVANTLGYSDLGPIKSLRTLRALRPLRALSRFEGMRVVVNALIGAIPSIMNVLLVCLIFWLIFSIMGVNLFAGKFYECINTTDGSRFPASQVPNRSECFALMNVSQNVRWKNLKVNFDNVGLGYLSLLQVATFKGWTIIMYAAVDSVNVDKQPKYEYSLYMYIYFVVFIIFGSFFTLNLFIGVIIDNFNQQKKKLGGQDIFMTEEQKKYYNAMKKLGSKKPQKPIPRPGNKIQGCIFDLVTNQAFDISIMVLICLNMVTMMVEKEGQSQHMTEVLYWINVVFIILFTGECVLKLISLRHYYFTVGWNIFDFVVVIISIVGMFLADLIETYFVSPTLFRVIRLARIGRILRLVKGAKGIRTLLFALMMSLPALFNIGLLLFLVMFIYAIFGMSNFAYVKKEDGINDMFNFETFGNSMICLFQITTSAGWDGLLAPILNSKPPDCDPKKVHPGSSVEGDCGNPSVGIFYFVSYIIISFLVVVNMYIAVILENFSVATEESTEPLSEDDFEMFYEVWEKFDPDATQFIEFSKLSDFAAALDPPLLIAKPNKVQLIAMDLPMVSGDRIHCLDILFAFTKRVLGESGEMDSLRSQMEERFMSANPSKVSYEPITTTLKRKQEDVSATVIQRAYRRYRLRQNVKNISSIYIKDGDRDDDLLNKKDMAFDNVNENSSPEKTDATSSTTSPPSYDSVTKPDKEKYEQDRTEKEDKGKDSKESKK

Structure (SMILES)	pIC50
CN(c1nc(N)nc(-c2noc(-c3ccc(OCC(F)(F)F)nc3)n2)n1)c1cccc(F)c1F [Example 411, 2-N-(2,3-difluorophenyl)-2-N-methyl-6-{5-[6-(2,2,2-trifluoroethoxy)pyridin-3-yl]-1,2,4-oxadiazol-3-yl}-1,3,5-triazine-2,4-diamine]	7.77
Cc1csc(-c2nc(-c3nc(N)nc(N(C)c4ccccc4)n3)no2)n1 [Example 341, 2-N-methyl-6-[5-(4-methyl-1,3-thiazol-2-yl)-1,2,4-oxadiazol-3-yl]-2-N-phenyl-1,3,5-triazine-2,4-diamine]	5.83
CN(c1ccccc1)c1nc(N)nc(-c2noc(C3CCN(Cc4ccccc4)C3)n2)n1 (stereo not shown) [Example 207, 6-[5-(1-benzylpyrrolidin-3-yl)-1,2,4-oxadiazol-3-yl]-2-N-methyl-2-N-phenyl-1,3,5-triazine-2,4-diamine]	7.01

Now from value to molecule:

pIC50	Structure (SMILES)
6.76	CN(c1ccccc1)c1nc(N)nc(-c2noc(-c3cccnc3OCC(F)(F)F)n2)n1 [Example 477, 2-N-methyl-2-N-phenyl-6-{5-[2-(2,2,2-trifluoroethoxy)pyridin-3-yl]-1,2,4-oxadiazol-3-yl}-1,3,5-triazine-2,4-diamine]
6.09	CN(c1ccccc1)c1nc(N)nc(-c2noc(-c3ccn(CC(F)(F)F)n3)n2)n1 [Example 256, 2-N-Methyl-2-N-phenyl-6-{5-[1-(2,2,2-trifluoroethyl)-1H-pyrazol-3-yl]-1,2,4-oxadiazol-3-yl}-1,3,5-triazine-2,4-diamine]

Same assay, conditions: marker b: Manual patch clamp data; read-out: Nav 1.7 activity

pIC50	Structure (SMILES)
6.47	CN(c1ccc(Cl)cc1)c1nc(N)nc(-c2noc(-c3ccco3)n2)n1 [Example 8, 6-(5-Furan-2-yl-[1,2,4]oxadiazol-3-yl)-N-methyl-N-(4-chlorophenyl)-[1,3,5]triazine-2,4-diamine]
6.46	CN(c1ccccc1)c1nc(N)nc(-c2noc(-c3ccccc3)n2)n1 [Example 10, N-Methyl-N-phenyl-6-(5-phenyl-[1,2,4]oxadiazol-3-yl)-[1,3,5]triazine-2,4-diamine]
5.63	CN(c1ccccc1)c1nc(N)nc(-c2noc(-c3ccc(Cl)s3)n2)n1 [Example 12, N-Methyl-6-[5-(5-chloro-thiophen-2-yl)-[1,2,4]oxadiazol-3-yl]-N-phenyl-[1,3,5]triazine-2,4-diamine]
6.93	Nc1nc(Nc2cccc(F)c2F)nc(-c2noc(-c3ccco3)n2)n1 [Example 113, N-(2,3-Difluoro-phenyl)-6-(5-furan-2-yl-[1,2,4]oxadiazol-3-yl)-[1,3,5]triazine-2,4-diamine]
7.23	Cc1ccc(F)c(N(C)c2nc(N)nc(-c3noc(-c4ccco4)n3)n2)c1 [Example 105, N-(2-Fluoro-5-methyl-phenyl)-6-(5-furan-2-yl-[1,2,4]oxadiazol-3-yl)-N-methyl-[1,3,5]triazine-2,4-diamine]
6.40	COCCN(c1ccccc1)c1nc(N)nc(-c2noc(-c3ccco3)n2)n1 [Example 119, 6-(5-Furan-2-yl-[1,2,4]oxadiazol-3-yl)-N-(2-methoxy-ethyl)-N-phenyl-[1,3,5]triazine-2,4-diamine]

Biological target: T1, Nav 1.7
Test: Whole-cell voltage clamp electrophysiology, automated patch clamp (marker c in Table of Examples)
Format: cell-based
Conditions: marker c = Automated patch clamp data; read-out: Nav 1.7 activity
Procedure, shortened: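 A voltage protocol weighted toward inactivated-state block was used to test compounds on stably expressing cells, with pulses from −65 mV holding to −10 mV test and −100 mV. Currents came from whole-cell automated patch-clamp recordings, either IonWorks Quattro or other automated instruments, usually in perforated-patch mode.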

Structure (SMILES)	pIC50
CN(c1ccccc1)c1nc(N)nc(-c2noc(-c3ncccc3NC3CCC3)n2)n1 [Example 488, 6-{5-[3-(cyclobutylamino)pyridin-2-yl]-1,2,4-oxadiazol-3-yl}-2-N-methyl-2-N-phenyl-1,3,5-triazine-2,4-diamine]	6.08
COC1CCN(c2nc(-c3nc(N)nc(Nc4cccc(F)c4)n3)no2)CC1 [Example 237, 2-N-(3-fluorophenyl)-6-[5-(4-methoxypiperidin-1-yl)-1,2,4-oxadiazol-3-yl]-1,3,5-triazine-2,4-diamine]	5.40
Nc1nc(Nc2cccc(F)c2)nc(-c2noc(NC3CCCC3)n2)n1 [Example 235, 6-[5-(cyclopentylamino)-1,2,4-oxadiazol-3-yl]-2-N-(3-fluorophenyl)-1,3,5-triazine-2,4-diamine]	5.77
COC(=O)c1ccc(-c2nc(-c3nc(N)nc(Nc4ccccc4)n3)no2)cn1 [Example 297]	6.68
CC(c1ccc(-c2nc(-c3nc(N)nc(N(C)c4ccccc4)n3)no2)nc1)N1CCCC1 (stereo not shown) [Example 294, 2-N-Methyl-2-N-phenyl-6-(5-{5-[1-(pyrrolidin-1-yl)ethyl]pyridin-2-yl}-1,2,4-oxadiazol-3-yl)-1,3,5-triazine-2,4-diamine]	5.40

Now from value to molecule:

pIC50	Structure (SMILES)
5.14	CN(c1ccccc1)c1nc(N)nc(-c2noc(-c3ncccc3C(=O)NC3CCC3)n2)n1 [Example 371, 2-(3-{4-amino-6-[methyl(phenyl)amino]-1,3,5-triazin-2-yl}-1,2,4-oxadiazol-5-yl)-N-cyclobutylpyridine-3-carboxamide]
5.07	CCCS(=O)(=O)N1CCC(c2nc(-c3nc(N)nc(N(C)c4ccccc4)n3)no2)C1 (stereo not shown) [Example 200, 2-N-methyl-2-N-phenyl-6-{5-[1-(propane-1-sulfonyl)pyrrolidin-3-yl]-1,2,4-oxadiazol-3-yl}-1,3,5-triazine-2,4-diamine]
5.45	CN(c1ccccc1)c1nc(N)nc(-c2noc(-c3cccnc3C(=O)NCC3CC3)n2)n1 [Example 370, 3-(3-{4-amino-6-[methyl(phenyl)amino]-1,3,5-triazin-2-yl}-1,2,4-oxadiazol-5-yl)-N-(cyclopropylmethyl)pyridine-2-carboxamide]
5.32	CN(c1ccccc1)c1nc(N)nc(-c2noc(C3CN(C(=O)OC(C)(C)C)C3)n2)n1 [Example 382, tert-butyl 3-(3-{4-amino-6-[methyl(phenyl]amino]-1,3,5-triazin-2-yl}-1,2,4-oxadiazol-5-yl)azetidine-1-carboxylate]
5.40	CN(c1ccccc1)c1nc(N)nc(-c2noc(C(=O)N3C[C@@H]4[C@@H](COCC(F)(F)F)[C@@H]4C3)n2)n1 [Example 402, 2-N-methyl-2-N-phenyl-6-(5-{[-6-[(2,2,2-trifluoroethoxy)methyl]-3-azabicyclo[3.1.0]hexan-3-yl]carbonyl}-1,2,4-oxadiazol-3-yl)-1,3,5-triazine-2,4-diamine]
5.52	CN(c1ccccc1)c1nc(N)nc(-c2noc(C(=O)N3CCC(COCC(F)(F)F)CC3)n2)n1 [Example 460, 2-N-methyl-2-N-phenyl-6-[5-({4-[(2,2,2-trifluoroethoxy)methyl]piperidin-1-yl]carbonyl)-1,2,4-oxadiazol-3-yl]-1,3,5-triazine-2,4-diamine]
5.82	CC(CC(F)(F)F)N1CCC(c2nc(-c3nc(N)nc(N(C)c4ccccc4)n3)no2)C1 (stereo not shown) [Example 205, 2-N-methyl-2-N-phenyl-6-{5-[1-(4,4,4-trifluorobutan-2-yl)pyrrolidin-3-yl]-1,2,4-oxadiazol-3-yl}-1,3,5-triazine-2,4-diamine]

Same assay, conditions: marker c: Automated patch clamp data; read-out: Nav 1.7 activity

Structure (SMILES)	pIC50
CN(c1ccccc1)c1nc(N)nc(-c2noc(-c3ncco3)n2)n1 [Example 128, N-Methyl-6-(5-oxazol-2-yl-[1,2,4]oxadiazol-3-yl)-N-phenyl-[1,3,5]triazine-2,4-diamine]	5.82
Cc1cccc(N(C)c2nc(N)nc(-c3noc(-c4ccco4)n3)n2)c1F [Example 107, N-(2-Fluoro-3-methyl-phenyl)-6-(5-furan-2-yl-[1,2,4]oxadiazol-3-yl)-N-methyl-[1,3,5]triazine-2,4-diamine]	6.13
COc1ccc(-c2nc(-c3nc(N)nc(N(C)c4cccc(C)c4)n3)no2)cc1 [Example 184, 6-[5-(4-methoxyphenyl)-1,2,4-oxadiazol-3-yl]-2-N-methyl-2-N-(3-methylphenyl)-1,3,5-triazine-2,4-diamine]	7.21

Other lines, results leading:

pIC50	Structure (SMILES)
5.83	CCOC(=O)c1nc(-c2nc(N)nc(N(C)c3ccccc3)n2)no1 [Example 73, 3-[4-Amino-6-(methyl-phenyl-amino)-[1,3,5]triazin-2-yl]-[1,2,4]oxadiazole-5-carboxylic acid ethyl ester]
6.73	CN(c1ccccc1)c1nc(N)nc(-c2noc(-c3ccc(OCC4CC4)nc3)n2)n1 [Example 146, 6-{5-[6-(cyclopropylmethoxy)pyridin-3-yl]-1,2,4-oxadiazol-3-yl}-2-N-methyl-2-N-phenyl-1,3,5-triazine-2,4-diamine]

— US8895733B2 (Novartis AG, priority 2010, dated 2014)
